Consider one molecule from patent US20220370471A1, “COMPOSITION AND METHOD FOR TREATMENT OF HIPPOCAMPAL SYNAPSE DYSFUNCTION AND COGNITIVE DEFICITS IN ALZHEIMER'S DISEASE” (BOARD OF REGENTS, THE UNIVERSITY OF TEXAS SYSTEM, priority 2019, published 2022).

Data set [1] addresses Ghsr1α (Homo sapiens, UniProt Q92847). Particulars: cited from earlier work.
Data set [2] concerns 5×FAD mice. The data set can be described thus: Microglia density, morphology and plaque-associated microglia analysis. The data set is classed as in vivo, mouse. The procedure: Immunocytochemistry. Frozen sections were prepared as previously described. […] Nuclei were labeled with 4′,6-diamidino-2-phenylindole (DAPI, Thermo Fisher Scientific, #R37606, 1 drop/500 ul) as needed. Images were collected on a Nikon confocal microscope. Microglia morphology and plaque-associated microglia density analysis. Analysis of microglia morphology was done by producing three-dimensional (3D) reconstructions of cells using Imaris software (Bitplane, Imaris×64 9.0.2)[49]. Using the Filament algorithm, the software was able to calculate the length of each cell dendrite and number of branch points. This was done by first selecting the appropriate region of interest for the desired cell. If there were nearby cells, the somas of those cells were included in the region of interest. Since the software builds the dendrites based on extension from the largest set diameter, doing this can prevent unwanted filaments bridging the dendrites of two or more cells. The dendrite diameter parameters were set with the largest diameter being the soma size and the smallest diameter at 0.5 μm. To further prevent unwanted connections, the option to ‘Remove disconnected segments’ was used in the dendrite building menu with the distance threshold set at 5 μm. After the algorithm finished detecting the dendrites, non-specifically detected filaments were manually trimmed. Dendrite length and branch points were then calculated by the software. Plaque-associated microglia density was analyzed by using NIS element software. Microglia were counted under the following rule: if more than 50% of the microglia soma was within a plaque, it was counted as one plaque-associated microglia. Plaque volume was analyzed as described in the previous section (amyloid plaque deposition analysis).

Data set [3] is described as follows: Mouse body weight during treatment. The data set is classed as in vivo. The following applies: MK0677 1.5 mg/kg, daily i.p. From the text:
Agonist treatment on mice.
(§1) Mice and agonist treatment.

A further data set addresses T1, Ghsr1α/Drd1 complex (Mus musculus, UniProt Q61616+Q99P50).
T1 construct: endogenous in cells; host or cells: primary mouse hippocampal neurons (P0-1, DIV14)
As to the kind of experiment: Duolink PLA of Ghsr1α/Drd1 complex in cultured hippocampal neurons. The following applies: oligomeric Aβ42 1 μM, 24 hours; 1.5 μM MK0677, 2 μM SKF81297, or in combination. It counts as cell-based. From the text: Duolink In Situ Proximity Ligation Assay (PLA). […] PLA analysis was referred to previous report (66 67). NIH Image J was used for PLA signal quantification.
Agonist treatment on primary cultured neurons. […] The exposure was followed by immunostaining to examine the effects of Ghsr1α/Drd1 co-activation on Aβ induced synaptic loss or Ghsr1α/Drd1, Aβ/Ghsr1α interaction as described in previous sections.

Data set [4] deals with 5×FAD mice. The data set can be described thus: Survival of mice under daily MK0677 i.p. injection. It counts as in vivo, mouse. Particulars: 30 days. On the procedure:
To determine whether MK0677 mitigates hippocampal lesions in 5×FAD mice, the inventor first sought to determine the optimal dose of MK0677. 5×FAD mice at 3 months old received either saline or MK0677 at 1.5 or 3 mg/kg via daily i.p. injection for 30 days (FIGS. 12a). 5×FAD mice at 3 months old have little to no hippocampal lesions and indiscernible behavioral change, both of which become prominent at 4 months of age (the endpoint of treatment). The doses of MK0677 were chosen based on previous studies. […] The inventor therefore selected 5×FAD mice that received the 1.5 mg/kg dose of MK0677 for biological response assays. Next, he examined the impact of MK0677 treatment on hippocampal Aβ deposition in 5×FAD mice. To this end, immunofluorescent staining using the specific antibody against Aβ was performed to visualize Aβ plaques.
as §1

The test system of data set [5] is 5×FAD mice. As to the kind of experiment: Morris water maze test. The following applies: MK0677 1.5 mg/kg, daily i.p., one month.
Method: Mice and agonist treatment. […] Mice were used in pairs of age-matched non-transgenic mice (non-TG). Genotypes of animals were confirmed using PCR and/or amyloid plaque staining. The number of mice used was determined by previous data and calculations to ensure that the minimal number of mice as required was used in these experiments. […] Mouse body weight was recorded every five days until euthanasia. After the 1-month treatment, the mice were subjected to the Morris water maze behavioral test and then euthanized for tissue collection following IACUC-approved procedures.
Mouse behavioral test. The Morris water maze test was performed as previously described in order to test changes in mouse spatial learning and memory [3, 50]. Mice were randomly grouped by gender, genotypes and treatments (which the experimenter was blind to) and then transferred to the testing environment at least 0.5 hours before tests. During the test, mice were trained to find a hidden platform (20 cm diameter) in an open swimming pool (200 cm diameter) filled with 21° C. water (non-toxic white dye was used to hide the platform). Four trials were performed each day for 12 days. Each trial started at a different position (NW, N, E, SE) while the platform was kept in the same location (SW). […] Probe results were analyzed using the platform location crossed frequency value.
The subject of data set [6] is 5×FAD mice. As to the kind of experiment: Synaptic density in hippocampal CA1 region of treated mice. The data set is classed as in vivo, mouse. Particulars: MK0677 1.5 mg/kg, daily i.p., one month. The procedure:
Immunocytochemistry. […] NIS element software was used for image analysis. “Objective Count” dialog was used for intensity measurement. […] The overlapped dots represent synapses.
Synaptic density analysis. For synaptic density analysis, vesicular glutamate transporter 1(vGlutl)- and postsynaptic density 95 (PSD95)-stained channels were saved as two binary layers, the threshold for each channel defined separately and then applied to all the images. The overlapping areas were analyzed by using the “AND” operation in the “Binary Operation” dialogs of NIS element software. Hippocampal volume was measured as described in the previous section (amyloid plaque deposition analysis). The overlapping dots represent synapses and average synapse number per selected area volume was calculated to represent synaptic density.

Data set [7] deals with 5×FAD mice. The data set can be described thus: Amyloid plaque deposition analysis (hippocampus and cortex). It counts as in vivo, mouse. The procedure: Immunocytochemistry. Frozen sections were prepared as previously described. […] Nuclei were labeled with 4′,6-diamidino-2-phenylindole (DAPI, Thermo Fisher Scientific, #R37606, 1 drop/500 ul) as needed. Images were collected on a Nikon confocal microscope. Amyloid plaque deposition analysis. For amyloid plaque deposition analysis, amyloid plaque channel was subjected to “Binary” then “Define Threshold” in NIS element software. The threshold was set to include all the positive staining and the same setting was applied to all images. Volume measurement was then performed for all the plaques as well as each single plaque in both the hippocampal and cortical areas using the ROI selection option. Amyloid plaque-occupied percentage in the hippocampus or cortex and the average individual plaque volume was used to compare amyloid plaque deposition between 5×FAD saline and MK0677 treatment groups.

For data set [8], the system named is 5×FAD mice. The following applies: recent study, higher dose of MK0677; cited from earlier work.
For data set [9], the target named is T2, Ghsr1α (Mus musculus, UniProt Q99P50, INS247CCPGCC).
T2 construct: Mouse full length Ghsr1α cDNA (NCBI Gene ID: 208188) was purchased from OriGene (MR226073); expressed in transfected cells; host or cells: HEK 293T
T2 sequence (Q99P50 with tags, fused parts or gaps INS247CCPGCC): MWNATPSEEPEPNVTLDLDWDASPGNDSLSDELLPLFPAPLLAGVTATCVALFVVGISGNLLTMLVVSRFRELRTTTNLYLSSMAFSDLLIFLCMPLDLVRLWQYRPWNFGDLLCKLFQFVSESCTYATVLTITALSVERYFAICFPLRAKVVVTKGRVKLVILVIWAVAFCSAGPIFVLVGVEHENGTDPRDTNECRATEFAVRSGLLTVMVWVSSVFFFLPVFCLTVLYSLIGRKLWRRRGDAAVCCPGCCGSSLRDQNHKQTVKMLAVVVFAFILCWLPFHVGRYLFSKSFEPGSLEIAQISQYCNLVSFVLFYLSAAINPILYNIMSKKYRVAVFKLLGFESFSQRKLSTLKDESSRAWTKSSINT
The data set can be described thus: FlAsH-based FRET assay of Ghsr1α activity in HEK 293T cells. The data set is classed as cell-based. The following applies: 50 μM; Ghsr1α FlAsH/ECFP-expressing HEK 293T cells.
From the text: FlAsH-based FRET was created by structural dynamics of Ghsr1α with FlAsH in the intercellular loop 3 and enhanced cyan fluorescent protein (ECFP) in the C-terminus (Ghsr1α^FlAsH/ECFP).
FlAsH-based FRET. […] The CCPGCC motif which has higher binding affinity for FlAsH was inserted in the third intracellular loop between Va1247 and Gly248 of Ghsr1α cDNA or between Thr245 and Gly246 of Drd1 cDNA. […] Fluorescence signals were monitored on microplate reader (BioTek Cytation 5) before and after the treatments. […] Area scanning read mode was used to correct artificial inaccuracies. The FRET ratio (FFlAsH/FECFP) was calculated according to equation as previously reported (69):
The terms a and b are correction factors for the two leakages mentioned above. a is the ratio of the direct emission of donor, ECFP at 535 nm, to its emission at 475 nm when excited at 425 nm which was calculated with cells transfected with pcDNA3-Ghsr1α^FlAsH/ECFP or pcDNA3-Drd1^FlAsH/ECFP only. b is the ratio of the direct emission of FlAsH at 535 nm when excited at 425 nm to its emission at 535 nm when excited at 500 nm which was calculated with FlAsH labeled untransfected cells.

Setting [10] is: MK0677 1.5 mg/kg, daily i.p., one month.
[11] abbreviates: saline- vs MK0677-treated 5×FAD mice.

Ghsr1α (Homo sapiens, UniProt Q92847), sequence (Q92847 whole entry): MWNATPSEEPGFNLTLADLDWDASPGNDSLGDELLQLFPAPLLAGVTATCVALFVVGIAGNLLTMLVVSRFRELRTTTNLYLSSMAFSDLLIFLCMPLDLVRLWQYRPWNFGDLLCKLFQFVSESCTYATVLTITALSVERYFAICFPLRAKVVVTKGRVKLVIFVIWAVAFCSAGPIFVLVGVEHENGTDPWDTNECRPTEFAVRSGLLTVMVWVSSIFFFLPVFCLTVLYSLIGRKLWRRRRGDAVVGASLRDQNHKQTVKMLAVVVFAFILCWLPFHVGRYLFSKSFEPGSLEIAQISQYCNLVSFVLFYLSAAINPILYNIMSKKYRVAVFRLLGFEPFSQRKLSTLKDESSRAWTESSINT
T1 sequence (Q99P50 whole entry): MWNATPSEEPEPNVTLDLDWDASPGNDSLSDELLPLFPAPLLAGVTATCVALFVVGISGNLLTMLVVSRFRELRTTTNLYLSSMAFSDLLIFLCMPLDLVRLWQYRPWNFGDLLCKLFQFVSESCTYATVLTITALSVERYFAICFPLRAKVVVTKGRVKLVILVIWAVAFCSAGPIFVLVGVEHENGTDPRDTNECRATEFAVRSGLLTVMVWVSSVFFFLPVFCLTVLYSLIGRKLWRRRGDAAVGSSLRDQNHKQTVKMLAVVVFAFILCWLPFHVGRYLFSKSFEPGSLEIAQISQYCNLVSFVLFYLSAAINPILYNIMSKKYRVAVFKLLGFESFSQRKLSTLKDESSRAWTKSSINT
T1 sequence (Q61616 whole entry): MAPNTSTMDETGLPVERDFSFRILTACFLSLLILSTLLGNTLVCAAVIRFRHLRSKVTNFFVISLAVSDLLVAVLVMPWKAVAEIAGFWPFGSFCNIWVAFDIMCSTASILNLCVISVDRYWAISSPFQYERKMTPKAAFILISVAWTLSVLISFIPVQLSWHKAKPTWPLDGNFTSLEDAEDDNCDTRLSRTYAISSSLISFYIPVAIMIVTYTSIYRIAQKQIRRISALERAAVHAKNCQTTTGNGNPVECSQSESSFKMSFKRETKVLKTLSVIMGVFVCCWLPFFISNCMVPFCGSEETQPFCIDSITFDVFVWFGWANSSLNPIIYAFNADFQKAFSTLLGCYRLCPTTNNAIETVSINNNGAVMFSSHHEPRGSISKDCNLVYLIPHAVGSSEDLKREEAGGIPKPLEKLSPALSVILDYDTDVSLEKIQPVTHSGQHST

For `CC(C)(N)C(=O)N[C@H](COCc1ccccc1)C(=O)N1CCC2(CC1)CN(S(C)(=O)=O)c1ccccc12` [MK0677], the “potency relative to ghrelin” value at Ghsr1α [1] is “higher potency than ghrelin”. In addition, in the data set with 5×FAD mice [2] (setting [10]), the “increased microglial density in the hippocampus, 5×FAD mice” value is on record as “not prevented” and the “microglia density, non-TG saline vs MK0677” value is reported as “no significant difference”. For the same molecule, in the data set on 5×FAD mice [2] (MK0677-treated 5×FAD mice), the “density of plaque-associated microglia, neocortex” value was “failed to show any influence” and the “density of total microglia, neocortex” value is “failed to show any influence”. Further, in the data set with 5×FAD mice [2] (setting [11]), the “density of plaque-associated microglia, hippocampus” value was “no significant difference”; the “microglia length of total process” value is “no significant difference”; the “microglia number of branch points” value is on record as “no significant difference”. For the same molecule, the mouse body weight result in data set [3] is “did not affect mouse body weight”. Moreover, the Ghsr1α/Drd1 complex formation entry on Ghsr1α/Drd1 complex was “not the agonists alone”. Further, the “5×FAD mouse survival vs saline” value in the data set on 5×FAD mice [4] (MK0677 1.5 mg/kg) was “little effect”. The “mortality of 5×FAD mice” value in the data set with 5×FAD mice [4] (MK0677 3 mg/kg) is reported as “significantly increased the mortality”. For the same molecule, in the data set with 5×FAD mice [5], the “spatial reference learning and memory (genotypic cognitive impairment)” value is “failed to show any protective effect”. In addition, in the data set with 5×FAD mice [6], the “synaptic density, non-TG saline vs MK0677” value was “no significant difference” and the “synaptic loss in CA1 region, 5×FAD mice” value is “not significantly attenuated”. In addition, in the data set on 5×FAD mice [7] (5×FAD mice, MK0677 1.5 mg/kg, daily i.p., 30 days), the “size of each single Aβ plaque, hippocampus” value was “did not significantly alter”. For the same molecule, in the data set on 5×FAD mice [7] (MK0677-treated 5×FAD mice), the “single plaque size, neocortex” value was “failed to show any influence” and the “total plaque-occupied volume, neocortex” value is “failed to show any influence”. Further, the “neocortical Aβ plaques in young 5×FAD mice” value in the data set with 5×FAD mice [8] is listed as “lowered neocortical Aβ plaques”. Further, the “FRET ratio (FFlAsH/FECFP), agonist-induced Ghsr1α activation” value on Ghsr1α [9] is “induced a decrease in FRET ratio”.
